# In ChEMBL document CHEMBL3046571, “QSAR of 2,4-diphenyl-1,3-oxazolines for ovicidal activity against the two-spotted spider mite Tetranychus urticae” (2006):
# System: Tetranychus urticae
# Test: Acaricidal activity against Tetranychus urticae (two-spotted spider mite) in compound treated kidney bean leaf assessed as mortality of egg at 24 degC measured after 1 week
# Type: functional
# Conditions: 168 h
row,SMILES,LC50 [µM]
1,CCOc1cccc(C2COC(c3c(F)cccc3F)=N2)c1 (stereo not given),16.6
2,CCOc1cc(Br)ccc1C1COC(c2c(F)cccc2F)=N1 (stereo not given),1.32
3,Cc1ccc(C2COC(c3c(F)cccc3F)=N2)cc1C (stereo not given),17.4
4,CCCCCCc1ccc(C2COC(c3c(F)cccc3F)=N2)cc1F (stereo not given),1.38
5,CCCCCCc1ccc(C2COC(c3c(F)cccc3F)=N2)cc1Cl (stereo not given),1.32
6,Fc1ccc(C2COC(c3c(F)cccc3F)=N2)cc1F (stereo not given),1.7
7,Fc1ccc(C2COC(c3c(F)cccc3F)=N2)cc1Cl (stereo not given),1.62
8,Fc1cc(C2COC(c3c(F)cccc3F)=N2)ccc1Cl (stereo not given),0.162
9,Fc1cccc(F)c1C1=NC(c2ccc(Cl)c(Cl)c2)CO1 (stereo not given),1.51
10,CCOc1cc(C(C)C)ccc1C1COC(c2c(F)cccc2F)=N1 (stereo not given),0.145
11,CCCOc1cc(C(C)C)ccc1C1COC(c2c(F)cccc2F)=N1 (stereo not given),0.00138
12,COc1cc(C(C)(C)C)ccc1C1COC(c2c(F)cccc2F)=N1 (stereo not given),0.0144
13,CCCOc1cc(C(C)(C)C)ccc1C1COC(c2c(F)cccc2F)=N1 (stereo not given),0.0135
14,CCCCOc1cc(C(C)(C)C)ccc1C1COC(c2c(F)cccc2F)=N1 (stereo not given),0.129
15,CCCCCCOc1cc(C(C)(C)C)ccc1C1COC(c2c(F)cccc2F)=N1 (stereo not given),1.2
16,CCCCCc1ccc(C2COC(c3c(F)cccc3F)=N2)c(OCC)c1 (stereo not given),0.00135
17,CCCCCc1ccc(C2COC(c3c(F)cccc3F)=N2)c(OCCC)c1 (stereo not given),0.0129
18,CCCCCCCCc1ccc(C2COC(c3c(F)cccc3F)=N2)c(OC)c1 (stereo not given),0.126
19,CCCCCCCCCc1ccc(C2COC(c3c(F)cccc3F)=N2)c(OC)c1 (stereo not given),0.012
20,CCCCCCCCCCc1ccc(C2COC(c3c(F)cccc3F)=N2)c(OC)c1 (stereo not given),0.117
21,CCc1ccc(C2COC(c3c(F)cccc3F)=N2)c(F)c1 (stereo not given),1.62
22,CCCCCCc1ccc(C2COC(c3c(F)cccc3F)=N2)c(F)c1 (stereo not given),0.00138
23,CCCCCCCc1ccc(C2COC(c3c(F)cccc3F)=N2)c(F)c1 (stereo not given),0.00132

row,SMILES,LC50 [µM]
1,CCCCCCCCc1ccc(C2COC(c3c(F)cccc3F)=N2)c(F)c1 (stereo not given),0.00129
2,CCCCCCCCCCc1ccc(C2COC(c3c(F)cccc3F)=N2)c(F)c1 (stereo not given),0.012
3,CCCCCCCCCCCCc1ccc(C2COC(c3c(F)cccc3F)=N2)c(F)c1 (stereo not given),0.112
4,CCc1ccc(C2COC(c3c(F)cccc3F)=N2)c(Cl)c1 (stereo not given),0.0155
5,CC(C)Cc1ccc(C2COC(c3c(F)cccc3F)=N2)c(Cl)c1 (stereo not given),0.00145
6,CCCCCCc1ccc(C2COC(c3c(F)cccc3F)=N2)c(Cl)c1 (stereo not given),0.00132
7,CCCCCCCCc1ccc(C2COC(c3c(F)cccc3F)=N2)c(Cl)c1 (stereo not given),0.00123
8,CCCCCCCCCCc1ccc(C2COC(c3c(F)cccc3F)=N2)c(Cl)c1 (stereo not given),1.15
9,CCCCCCCCCCCCc1ccc(C2COC(c3c(F)cccc3F)=N2)c(Cl)c1 (stereo not given),1.07
10,COc1cc(F)ccc1C1COC(c2c(F)cccc2F)=N1 (stereo not given),1.62
11,CCOc1cc(F)ccc1C1COC(c2c(F)cccc2F)=N1 (stereo not given),0.0155
12,CCCCOc1cc(F)ccc1C1COC(c2c(F)cccc2F)=N1 (stereo not given),0.00145
13,Fc1ccc(C2COC(c3c(F)cccc3F)=N2)c(F)c1 (stereo not given),0.17
14,Fc1ccc(C2COC(c3c(F)cccc3F)=N2)c(Cl)c1 (stereo not given),1.62
15,Cc1cc(Cl)ccc1C1COC(c2c(F)cccc2F)=N1 (stereo not given),1.62
16,COc1cc(Cl)ccc1C1COC(c2c(F)cccc2F)=N1 (stereo not given),1.55
17,CCOc1cc(Cl)ccc1C1COC(c2c(F)cccc2F)=N1 (stereo not given),1.48
18,Fc1cc(Cl)ccc1C1COC(c2c(F)cccc2F)=N1 (stereo not given),0.00162
19,Fc1cccc(F)c1C1=NC(c2ccc(Cl)cc2Cl)CO1 (stereo not given),0.151
20,CCc1ccc(C2COC(c3c(F)cccc3F)=N2)cc1 (stereo not given),0.0174
21,COc1ccc(C2COC(c3c(F)cccc3F)=N2)cc1 (stereo not given),17.4
22,CCOc1ccc(C2COC(c3c(F)cccc3F)=N2)cc1 (stereo not given),0.0166
23,Fc1ccc(C2COC(c3c(F)cccc3F)=N2)cc1 (stereo not given),1.82

row,SMILES,LC50 [µM]
1,Fc1cccc(F)c1C1=NC(c2ccc(Cl)cc2)CO1 (stereo not given),0.017
2,CC(C)c1ccc(C2COC(c3c(F)cccc3F)=N2)cc1 (stereo not given),0.0166
3,CCCCc1ccc(C2COC(c3c(F)cccc3F)=N2)cc1 (stereo not given),0.00159
4,CC(C)Cc1ccc(C2COC(c3c(F)cccc3F)=N2)cc1 (stereo not given),0.00159
5,CC(C)(C)c1ccc(C2COC(c3c(F)cccc3F)=N2)cc1 (stereo not given),0.00159
6,CCCCCCc1ccc(C2COC(c3c(F)cccc3F)=N2)cc1 (stereo not given),0.00145
7,CCCCCCCCc1ccc(C2COC(c3c(F)cccc3F)=N2)cc1 (stereo not given),0.00135
8,CCCCCCCCCCc1ccc(C2COC(c3c(F)cccc3F)=N2)cc1 (stereo not given),0.00126
9,CCCCCCCCCCCCc1ccc(C2COC(c3c(F)cccc3F)=N2)cc1 (stereo not given),0.00118
10,CCCCCCCCCCCCCCCc1ccc(C2COC(c3c(F)cccc3F)=N2)cc1 (stereo not given),0.0107
11,CC(C)Oc1ccc(C2COC(c3c(F)cccc3F)=N2)cc1 (stereo not given),0.0158
12,CCCCOc1ccc(C2COC(c3c(F)cccc3F)=N2)cc1 (stereo not given),0.00151
13,CCCCCCCCOc1ccc(C2COC(c3c(F)cccc3F)=N2)cc1 (stereo not given),0.00129
14,CCCCCCCCCCOc1ccc(C2COC(c3c(F)cccc3F)=N2)cc1 (stereo not given),0.0012
15,CCCCCCCCCCCCCOc1ccc(C2COC(c3c(F)cccc3F)=N2)cc1 (stereo not given),0.011
16,CCCCCCCCCCCCCCOc1ccc(C2COC(c3c(F)cccc3F)=N2)cc1 (stereo not given),0.107
17,CSc1ccc(C2COC(c3c(F)cccc3F)=N2)cc1 (stereo not given),1.62
18,C[S+]([O-])c1ccc(C2COC(c3c(F)cccc3F)=N2)cc1 (stereo not given),155
19,CS(=O)(=O)c1ccc(C2COC(c3c(F)cccc3F)=N2)cc1 (stereo not given),1480
20,CC(C)Sc1ccc(C2COC(c3c(F)cccc3F)=N2)cc1 (stereo not given),1.51
21,CCCCCCCCCSc1ccc(C2COC(c3c(F)cccc3F)=N2)cc1 (stereo not given),0.12
22,Fc1cccc(F)c1C1=NC(c2ccc(Br)cc2)CO1 (stereo not given),0.0148
23,Fc1cccc(F)c1C1=NC(c2ccc(C(F)(F)F)cc2)CO1 (stereo not given),0.151

row,SMILES,LC50 [µM]
1,Fc1cccc(F)c1C1=NC(c2ccc(OC(F)(F)F)cc2)CO1 (stereo not given),0.0144
2,Fc1cccc(F)c1C1=NC(c2ccc(OCC(F)(F)F)cc2)CO1 (stereo not given),0.00141
3,Oc1ccc(C2COC(c3c(F)cccc3F)=N2)cc1 (stereo not given),182
4,CN(C)c1ccc(C2COC(c3c(F)cccc3F)=N2)cc1 (stereo not given),166
5,C[Si](C)(C)c1ccc(C2COC(c3c(F)cccc3F)=N2)cc1 (stereo not given),0.00151
6,Cc1ccc(C2COC(c3c(F)cccc3F)=N2)c(C)c1 (stereo not given),174
7,CCCCCCCCc1ccc(C2COC(c3c(F)cccc3F)=N2)c(C)c1 (stereo not given),0.00129
8,Cc1ccccc1C1COC(c2c(F)cccc2F)=N1 (stereo not given),182
9,CCc1ccccc1C1COC(c2c(F)cccc2F)=N1 (stereo not given),17.4
10,COc1ccccc1C1COC(c2c(F)cccc2F)=N1 (stereo not given),174
11,CCOc1ccccc1C1COC(c2c(F)cccc2F)=N1 (stereo not given),166
12,Fc1ccccc1C1COC(c2c(F)cccc2F)=N1 (stereo not given),18.2
13,Fc1cccc(F)c1C1=NC(c2ccccc2Cl)CO1 (stereo not given),1.7
14,Cc1cccc(C2COC(c3c(F)cccc3F)=N2)c1 (stereo not given),182
15,CCc1cccc(C2COC(c3c(F)cccc3F)=N2)c1 (stereo not given),174
16,COc1cccc(C2COC(c3c(F)cccc3F)=N2)c1 (stereo not given),17.4
17,Fc1cccc(C2COC(c3c(F)cccc3F)=N2)c1 (stereo not given),18.2
18,Fc1cccc(F)c1C1=NC(c2cccc(Cl)c2)CO1 (stereo not given),17
19,Cc1ccc(C2COC(c3c(F)cccc3F)=N2)cc1 (stereo not given),1.82
20,Fc1cccc(F)c1C1=NC(c2ccccc2)CO1 (stereo not given),19.5
21,CCOc1cc(C(C)(C)C)ccc1C1COC(c2c(F)cccc2F)=N1 (stereo not given) [ETOXAZOLE],0.0138
